{"source": "patent US9115139B2", "about": "“Pyrazinooxazepine derivatives” (TAKEDA PHARMACEUTICAL COMPANY LIMITED, priority 2009, dated 2015)", "target": "serotonin 5-HT2C receptor (VSV type isoform, stably expressing CHO cell) (Homo sapiens, UniProt P28335, I156V/I160V/N158S)", "sequence (P28335 33-458 I156V/N158S/I160V limits assumed)": "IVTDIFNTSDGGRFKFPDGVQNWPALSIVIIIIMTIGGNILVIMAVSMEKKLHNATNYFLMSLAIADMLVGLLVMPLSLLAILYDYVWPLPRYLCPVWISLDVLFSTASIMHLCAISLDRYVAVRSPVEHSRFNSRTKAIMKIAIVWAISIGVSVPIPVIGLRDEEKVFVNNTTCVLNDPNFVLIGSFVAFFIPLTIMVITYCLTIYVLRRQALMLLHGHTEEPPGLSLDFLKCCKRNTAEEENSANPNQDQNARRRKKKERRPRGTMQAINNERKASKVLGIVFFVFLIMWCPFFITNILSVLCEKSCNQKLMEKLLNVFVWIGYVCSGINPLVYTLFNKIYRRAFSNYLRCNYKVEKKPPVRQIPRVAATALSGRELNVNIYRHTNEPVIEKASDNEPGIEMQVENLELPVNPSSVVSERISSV", "format": "cell-based"}
{"smiles": "CC(C)Oc1cnc2c(n1)OCCNC2.Cl", "note": "[Example 2, 3-(1-methylethoxy)-6,7,8,9-tetrahydropyrazino[2,3-f][1,4]oxazepine hydrochloride]", "values": [{"measurement": "ratio (%) relative to maximum response by 5-HT (1 μM)", "value": 93, "unit": "%"}]}
{"smiles": "C[C@@H]1COCCN1c1cnc2c(n1)OCCNC2.Cl", "note": "[Example 5, 3-[(3R)-3-methylmorpholin-4-yl]-6,7,8,9-tetrahydropyrazino[2,3-f][1,4]oxazepine hydrochloride]", "values": [{"measurement": "ratio (%) relative to maximum response by 5-HT (1 μM)", "value": 95, "unit": "%"}]}
{"smiles": "CC(C)N(C)c1cnc2c(n1)OCCNC2.Cl", "note": "[Example 8, N-methyl-N-(1-methylethyl)-6,7,8,9-tetrahydropyrazino[2,3-f][1,4]oxazepin-3-amine hydrochloride]", "values": [{"measurement": "ratio (%) relative to maximum response by 5-HT (1 μM)", "value": 95, "unit": "%"}]}
{"smiles": "Cl.c1nc2c(nc1C1CC1)OCCNC2", "note": "[Example 10, 3-cyclopropyl-6,7,8,9-tetrahydropyrazino[2,3-f][1,4]oxazepine hydrochloride]", "values": [{"measurement": "ratio (%) relative to maximum response by 5-HT (1 μM)", "value": 89, "unit": "%"}]}
